Data taken from US20170290774A1, “NEUROKININ-1 RECEPTOR ANTAGONIST COMPOSITION FOR TREATMENT OF DISEASES AND CONDITIONS OF THE RESPIRATORY TRACT” (PLUS VITECH, S.L., priority 2014, published 2017).
Read-outs that look alike come from different tables or passages of the source.

Key:
TNF-α = assay: Immunohistochemistry of TNF-α in respiratory tract tissue of sodium hypochlorite aerosol-treated rabbits; format: in vivo, New Zealand albino rabbits
From the text: It is known that the factors TGF-α, TGF-β 1, TGF-β 2, TGF-β 3, SPARC, MMP-3; MMP-7, MMP-9, MMP-11, MMP-13 and MMP-14, TGF-β, NF-kB, EGF, MMP-9, VEGF and TNF-α which are produced by lung cells (pneumocytes, fibroblasts and vascular endothelial cells) and inflammatory cells (macrophages, lymphocytes and polymorphonuclear leukocytes) are involved in the pathophysiology and development of said respiratory tract diseases. […] Herein, 27 New Zealand albino rabbits (New Zealand White Rabbit) with an initial average weight about 3 kg were used in this example. All subjects were administered an aerosol of a solution consisting of a mixture of water and sodium hypochlorite (35 g sodium hypochlorite per liter of water) at a rate of 5 mL of said solution by inhalation three times a day for 7 days (days 1 to 7 of experimentation). Subsequently, from days 3 to 7, a group of 3 rabbits (Group 1) was administered an oral dose of 10 mg/kg body weight per day, another group of 3 rabbits (Group 2) was administered an oral dose of 40 mg/kg body weight per day, a third group (Group 3) was administered an oral dose of 80 mg/kg body weight per day and a fourth group (Group 4) was administered an oral dose of 100 mg/kg body weight per day. […] This mixture was administered as an aerosol by inhalation, also from days 3 to 7, to a group of 3 rabbits (group 5) at a dose of 0.05 mg/kg body weight per day, to another group of three rabbits (Group 6) at a dose of 0.1 mg/kg body weight per day, to another group of three rabbits (Group 7) at a dose of 0.2 mg/kg body weight per day and to another group of three rabbits (Group 8) at a dose of 0.4 mg/kg body weight per day. A placebo consisting only of olive oil was administered from days 3 to 7 to a control group of 3 rabbits (placebo group). In parallel, 3 rabbits were kept under identical conditions but were not administered any treatment nor the aforementioned sodium hypochlorite solution (control group). […] On day 7 of the experiment all animals were euthanized and necropsied. […] Samples were taken at the peripheral level of the lung parenchyma, just below the pleural surface. Tissue samples were also taken from the nasal cavity, pharynx, larynx and bronchi. Immunohistochemistry studies were performed for all samples to evaluate the levels of the markers TGF-α, TGF-β 1, TGF-β 2, TGF-β 3 SPARC, MMP-3; MMP-7, MMP-9, MMP-11, MMP-14, TGF-β, TNF-α and VEGF. In said immunohistochemistry studies, a sample of each sample was dehydrated by treatment with increasing concentrations of ethanol and finally xylene. Subsequently said dried samples were embedded in paraffin, thus creating a block. Said paraffin blocks were cut on a microtome to a thickness of 5 μm, and the resulting sections (slices) were placed on slides suitable for conducting immunohistochemistry techniques. Subsequently, the sections were deparaffinised by immersion in xylene and then rehydrated through immersion in a series of solutions containing decreasing concentrations of ethanol and, finally, water. […] The samples were then allowed to cool to room temperature over 10 minutes. Endogenous peroxidase activity was blocked by treatment with 3% hydrogen peroxide over 30 min at room temperature. […] In order to verify the expression of NK1 receptors, the cell samples were incubated in the presence of anti-NK1 antibodies ([…], Sigma-Aldrich) diluted 1:1000 at 4° C. overnight. After this time they were washed in 0.05M Tris buffer at room temperature. Subsequently, Envision System-HRP (Dako) reagents were added for 30 min at room temperature. Once this time had expired, the samples were again washed with 0.05 M Tris buffer, and immunoreactivity was visualized by light microscopy with a chromogenic solution with 3,3'-diaminobenzidine (DAB+; Dako, USA). In order to differentiate the cell nuclei, these were lightly stained with haematoxylin. Samples that were not incubated with the primary antibody, but wherein this was replaced by a non-immune serum were used as negative controls. […]

[1] = cited from earlier work
[2] = single oral dose of 125 mg of Emend
[3] = terminal nephropathy with hemodialysis, single dose of 240 mg of Emend

SMILES: C[C@@H](OC1OCCN(Cc2nc(=O)[nH][nH]2)C1c1ccc(F)cc1)c1cc(C(F)(F)F)cc(C(F)(F)F)c1 (stereo in doubt) [Aprepitant, 5-([(2R,3S)-2-((R)-1-[3,5-bis(trifluoromethyl)phenyl]ethoxy)-3-(4-fluorophenyl)morpholino]methyl)-1H-1,2,4-triazol-3(2H)-one]
- Percent increase in TNF-α with respect to the control group (TNF-α; bronchial tissue, Group 1, oral 10 mg/kg per day): 789.45%
- Percent increase in TNF-α with respect to the control group (TNF-α; bronchial tissue, Group 2, oral 40 mg/kg per day): 580.67%
- Percent increase in TNF-α with respect to the control group (TNF-α; bronchial tissue, Group 3, oral 80 mg/kg per day): 467.45%
- Percent increase in TNF-α with respect to the control group (TNF-α; bronchial tissue, Group 4, oral 100 mg/kg per day): 356.34%
- % Med G5/C: percent increase in marker TNF-α with respect to the control group (TNF-α; bronchial tissue, Group 5): 673.34%
- % Med G6/C: percent increase in marker TNF-α with respect to the control group (TNF-α; bronchial tissue, Group 6): 451.23%
- % Med G7/C: percent increase in marker TNF-α with respect to the control group (TNF-α; bronchial tissue, Group 7): 325.21%
- % Med G8/C: percent increase in marker TNF-α with respect to the control group (TNF-α; bronchial tissue, Group 8): 201.23%
- Percent increase in TNF-α with respect to the control group (TNF-α; laryngeal tissue, Group 1, oral 10 mg/kg per day): 1,078.45%
- Percent increase in TNF-α with respect to the control group (TNF-α; laryngeal tissue, Group 2, oral 40 mg/kg per day): 809.99%
- Percent increase in TNF-α with respect to the control group (TNF-α; laryngeal tissue, Group 3, oral 80 mg/kg per day): 708.73%
- Percent increase in TNF-α with respect to the control group (TNF-α; laryngeal tissue, Group 4, oral 100 mg/kg per day): 509.87%
- Percent increase in TNF-α with respect to the control group (TNF-α; laryngeal tissue, Group 5, inhalation 0.05 mg/kg per day): 879.34%
- Percent increase in TNF-α with respect to the control group (TNF-α; laryngeal tissue, Group 6, inhalation 0.1 mg/kg per day): 456.34%
- Percent increase in TNF-α with respect to the control group (TNF-α; laryngeal tissue, Group 7, inhalation 0.2 mg/kg per day): 323.12%
- Percent increase in TNF-α with respect to the control group (TNF-α; laryngeal tissue, Group 8, inhalation 0.4 mg/kg per day): 150.34%
- Percent increase in TNF-α with respect to the control group (TNF-α; lung tissue, Group 1, oral 10 mg/kg per day): 859.73%
- Percent increase in TNF-α with respect to the control group (TNF-α; lung tissue, Group 2, oral 40 mg/kg per day): 685.01%
- Percent increase in TNF-α with respect to the control group (TNF-α; lung tissue, Group 3, oral 80 mg/kg per day): 607.15%
- Percent increase in TNF-α with respect to the control group (TNF-α; lung tissue, Group 4, oral 100 mg/kg per day): 463.11%
- Percent increase in TNF-α with respect to the control group (TNF-α; lung tissue, Group 5, inhalation 0.05 mg/kg per day): 980.46%
- Percent increase in TNF-α with respect to the control group (TNF-α; lung tissue, Group 6, inhalation 0.1 mg/kg per day): 470.69%
- Percent increase in TNF-α with respect to the control group (TNF-α; lung tissue, Group 7, inhalation 0.2 mg/kg per day): 218.38%
- Percent increase in TNF-α with respect to the control group (TNF-α; lung tissue, Group 8, inhalation 0.4 mg/kg per day): 151.28%
- Percent increase in TNF-α with respect to the control group (TNF-α; nasal cavity tissue, Group 1, oral 10 mg/kg per day): 1,411.41%
- Percent increase in TNF-α with respect to the control group (TNF-α; nasal cavity tissue, Group 2, oral 40 mg/kg per day): 842.93%
- Percent increase in TNF-α with respect to the control group (TNF-α; nasal cavity tissue, Group 3, oral 80 mg/kg per day): 658.65%
- Percent increase in TNF-α with respect to the control group (TNF-α; nasal cavity tissue, Group 4, oral 100 mg/kg per day): 418.29%
- Percent increase in TNF-α with respect to the control group (TNF-α; nasal cavity tissue, Group 5, inhalation 0.05 mg/kg per day): 1,495.60%
- Percent increase in TNF-α with respect to the control group (TNF-α; nasal cavity tissue, Group 6, inhalation 0.1 mg/kg per day): 736.83%
- Percent increase in TNF-α with respect to the control group (TNF-α; nasal cavity tissue, Group 7, inhalation 0.2 mg/kg per day): 151.81%
- Percent increase in TNF-α with respect to the control group (TNF-α; nasal cavity tissue, Group 8, inhalation 0.4 mg/kg per day): 122.23%
- Percent increase in TNF-α with respect to the control group (TNF-α; pharyngeal tissue, Group 1, oral 10 mg/kg per day): 1,357.32%
- Percent increase in TNF-α with respect to the control group (TNF-α; pharyngeal tissue, Group 2, oral 40 mg/kg per day): 987.63%
- Percent increase in TNF-α with respect to the control group (TNF-α; pharyngeal tissue, Group 3, oral 80 mg/kg per day): 789.45%
- Percent increase in TNF-α with respect to the control group (TNF-α; pharyngeal tissue, Group 4, oral 100 mg/kg per day): 418.29%
- Percent increase in TNF-α with respect to the control group (TNF-α; pharyngeal tissue, Group 5, inhalation 0.05 mg/kg per day): 1,532.34%
- Percent increase in TNF-α with respect to the control group (TNF-α; pharyngeal tissue, Group 6, inhalation 0.1 mg/kg per day): 989.36%
- Percent increase in TNF-α with respect to the control group (TNF-α; pharyngeal tissue, Group 7, inhalation 0.2 mg/kg per day): 298.67%
- Percent increase in TNF-α with respect to the control group (TNF-α; pharyngeal tissue, Group 8, inhalation 0.4 mg/kg per day): 167.34%
- effect of mild hepatic insufficiency on pharmacokinetics ([1]; Child-Pugh score of 5 to 6): does not affect to a clinically relevant degree
- oral bioavailability ([1]; Emend capsule of 80 mg): 67%
- oral bioavailability ([1]; Emend capsule of 125 mg): 59%
- linearity of pharmacokinetics ([1]; clinical dose interval): non-linear pharmacokinetics
- AUC0-24 h greater in elderly (≧65 years) than younger adults ([1]; day 1, oral 125 mg Emend): 21%
- Cmax greater in elderly than younger adults ([1]; day 1): 10%
- AUC0-24 h greater in elderly (≧65 years) than younger adults ([1]; day 5, 80 mg once a day): 36%
- Cmax greater in elderly than younger adults ([1]; day 5): 24%
- share of plasma radioactivity ([1]; healthy young adults, over 72 hours after single 100 mg intravenous dose of [C14] prodrug): approximately 19%
- increase in AUC0-∞ greater in proportion to the dose ([1]; healthy young adults, single doses of 80 mg and 125 mg, postprandial): 26%
- metabolites identified in human plasma ([1]; human plasma): 12
- increase of AUC with food ([1]; oral capsule with standard breakfast of approximately 800 Kcal): up to 40%
- Tmax ([1]; oral): approximately 4 hours
- reduction of AUC0-∞ of total aprepitant with respect to healthy patients ([1]; severe renal insufficiency (CrCl<30 ml/min), single dose of 240 mg of Emend): 21%
- reduction of Cmax with respect to healthy patients ([1]; severe renal insufficiency, single dose of 240 mg of Emend): 32%
- Cmax greater in women than men [1, 2]: 16%
- half-life greater in women than men [1, 2]: 25%
- reduction of AUC0-∞ of total aprepitant [1, 3]: 42%
- reduction of Cmax [1, 3]: 32%
